Here are results for 1 compound from patent publication US20110061129A1 (priority 2008, published 2011).

For experiment [1], the system named is mitochondrial translation in BY4743 and YKO strains. It counts as cell-based, Saccharomyces cerevisiae.
Experiment [2] relates to Saccharomyces cerevisiae homozygous diploid YKO strains and parental strain BY4743. It counts as cell-based.
Experiment [3] deals with total translation in BY4743 and YKO strains. It is filed as cell-based, Saccharomyces cerevisiae.
The subject of experiment [4] is Saccharomyces cerevisiae homozygous diploid YKO strains and parental strain BY4743. It counts as cell-based. This is another data set of the same source.

Consider `C/C=C\C(=O)O[C@@H]1C[C@H]2O[C@@H]3C=C(C)C(=O)C[C@]3(C)[C@]1(C)[C@]21CO1` [T-cin, trichothecin], for which, in experiment [1], the “effect on mitochondrial translation” value was “able to inhibit mitochondrial translation”. Besides, the “effect of the screening level of toxin on the parental strain” value in experiment [2] is given as “lethal”. Also, the “inhibition of the cytosolic translation rate of BY4743” value in experiment [3] is listed as 80-90%. For the same compound, the “effect of the 2 μM screening concentration on growth (parental strain)” value in experiment [4] is given as “non-lethal”.
